Assay results: patent publication US20160324962A1, “COMPOSITIONS AND METHODS FOR TREATING SARCOMA” (MEDIMMUNE, LLC, priority 2013, published 2016)

Legend:
[1] = system: RD-ES (Ewing's sarcoma) xenografts; experiment: Xenograft efficacy study in mice; type: in vivo; conditions: RD-ES xenograft model
Source text: Although proliferation of SK-ES-1 and SJCRH30 cells was inhibited by MEDI-573 in vitro in the absence of exogenous IGFs, the in vivo growth of these two models was not effected by MEDI-573 treatment.
The combination treatments were tolerated as no significant body weight loss was observed (FIG. 17B).
For in vivo efficacy studies, five million sarcoma cells in 50% matrigel were inoculated subcutaneously into each female athymic nude mice. When tumors reach approximately 150-200 mm^3, mice were randomly assigned into groups (10 mice per group). MEDI-573 was administrated intraperitoneally twice per week at indicated doses. The dose regimen for AZD2014 was oral once every day, for rapamycin was intraperitoneal injection every 3 days. Tumor volumes were measured twice weekly with calipers. Tumor growth inhibition was calculated on the last day of study relative to the initial and final mean tumor volume of the control group.

RD-ES cells = experiment: Cytotoxicity assay, MEDI-573 and mTOR inhibitors; type: cell-based; conditions: agents alone or in combination (FIG. 14)
pS6K = experiment: Immunoblot of cell lysates after MEDI-573, mTORi, combination; type: cell-based
Method: (§1) To examine the effect of MEDI-573, mTORi, and combination of both on IGF signaling, RD-ES, SJSA-1, and KHOS cells were treated with these agents for 4 hours. After separation of the cell lysates by gel electrophoresis, the proteins were detected by immunoblotting.

p4EBP1 = experiment: as above; type: cell-based; conditions: single agent, 4 hours
Method: as §1

pAKT = experiment: as above; type: cell-based; conditions: all 3 cell lines, 4 hours
Method: as §1

Compound	tumor growth inhibition ([1]; AZD2014 combination study (FIG. 16A))	decrease in cell viability (RD-ES cells)	phosphorylation of pS6K (pS6K; RD-ES cells)	phosphorylation of pS6K (pS6K; SJSA-1 or KHOS cells)	tumor growth inhibition ([1]; rapamycin combination study (FIG. 17A))	phosphorylation of 4EBP1 (p4EBP1)	phosphorylation of AKT (pAKT)	pS6K (pS6K; all 3 cell lines (RD-ES, SJSA-1, KHOS), 4 hours)
CNC(=O)c1cccc(-c2ccc3c(N4CCOC[C@@H]4C)nc(N4CCOC[C@@H]4C)nc3n2)c1 [AZD2014]	51%	55%	inhibited phosphorylation of pS6K	did not inhibit phosphorylation of pS6K	–	–	–	–
CO[C@H]1C[C@@H]2CC[C@@H](C)[C@@](O)(O2)C(=O)C(=O)N2CCCC[C@H]2C(=O)O[C@H]([C@H](C)C[C@@H]2CC[C@@H](O)[C@H](OC)C2)CC(=O)[C@H](C)/C=C(\C)[C@@H](O)[C@@H](OC)C(=O)[C@H](C)C[C@H](C)/C=C/C=C/C=C/1C [rapamycin]	–	34%	–	–	44%	did not have effect	induced phosphorylation of AKT	completely inhibited pS6K
